The values that follow come from ChEMBL document CHEMBL1144447, “3-[4-(methylsulfonyl)phenyl]-5-(trifluoromethyl)(2-pyridyl) phenyl ketone as a potent and orally active cyclooxygenase-2 selective inhibitor: synthesis and biological evaluation” (J Med Chem, 2005).

Assay [1] deals with Rattus norvegicus. Briefly: In vivo antiinflammatory potency in rat air pouch model expressed as inhibition of PGE-2 production following oral dosage of 6.1 mg/kg ([…]). Type of assay: functional.
The target in assay [2] is Prostaglandin G/H synthase 1 (Homo sapiens, UniProt P23219). The assay is classed as tissue-based, Blood.
Chain of Prostaglandin G/H synthase 1 (P23219 whole entry): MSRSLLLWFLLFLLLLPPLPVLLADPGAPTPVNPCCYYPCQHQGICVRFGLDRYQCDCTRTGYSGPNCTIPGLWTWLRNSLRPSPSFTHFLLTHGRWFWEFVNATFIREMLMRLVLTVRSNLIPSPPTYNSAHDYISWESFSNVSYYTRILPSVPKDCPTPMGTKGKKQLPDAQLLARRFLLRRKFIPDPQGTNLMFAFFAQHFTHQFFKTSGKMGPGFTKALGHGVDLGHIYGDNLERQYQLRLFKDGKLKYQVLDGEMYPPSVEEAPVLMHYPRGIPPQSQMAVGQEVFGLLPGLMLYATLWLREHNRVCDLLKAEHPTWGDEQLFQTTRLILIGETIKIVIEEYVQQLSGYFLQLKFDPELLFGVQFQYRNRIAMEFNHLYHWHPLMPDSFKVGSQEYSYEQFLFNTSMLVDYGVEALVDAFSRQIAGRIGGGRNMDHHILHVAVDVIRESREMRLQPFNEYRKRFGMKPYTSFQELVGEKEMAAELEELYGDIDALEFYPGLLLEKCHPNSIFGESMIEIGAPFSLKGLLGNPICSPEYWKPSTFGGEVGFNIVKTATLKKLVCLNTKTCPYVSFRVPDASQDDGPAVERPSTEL
Description: In vitro inhibitory concentration against Prostaglandin G/H synthase 1 (COX-1) in human whole blood
Assay [3] deals with T1, Prostaglandin G/H synthase 2 (Homo sapiens, UniProt P35354).
T1 sequence (P35354 whole entry): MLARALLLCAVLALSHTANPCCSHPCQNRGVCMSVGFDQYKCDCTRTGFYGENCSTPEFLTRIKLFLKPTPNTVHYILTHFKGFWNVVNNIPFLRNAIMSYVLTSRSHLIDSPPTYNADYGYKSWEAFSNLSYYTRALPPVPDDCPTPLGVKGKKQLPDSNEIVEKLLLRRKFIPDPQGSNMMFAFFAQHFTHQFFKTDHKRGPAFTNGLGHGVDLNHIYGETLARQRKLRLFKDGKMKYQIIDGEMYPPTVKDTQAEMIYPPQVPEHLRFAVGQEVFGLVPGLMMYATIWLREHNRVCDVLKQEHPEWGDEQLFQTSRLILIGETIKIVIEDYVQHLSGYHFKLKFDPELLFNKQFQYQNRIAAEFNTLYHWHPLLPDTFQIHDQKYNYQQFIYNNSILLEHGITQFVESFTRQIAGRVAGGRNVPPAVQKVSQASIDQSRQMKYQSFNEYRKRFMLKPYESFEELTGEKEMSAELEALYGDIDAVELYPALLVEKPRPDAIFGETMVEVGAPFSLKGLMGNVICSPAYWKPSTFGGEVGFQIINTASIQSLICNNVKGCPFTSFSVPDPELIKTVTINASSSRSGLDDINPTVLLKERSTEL
Description: In vitro inhibitory concentration against Prostaglandin G/H synthase 2 (COX-2) in human whole blood

The test system of assay [4] is Rattus norvegicus. Nature of the assay: In vivo antiinflammatory potency in rat air pouch model expressed as inhibition of white blood cell infiltration following oral dosage of 6.1 mg/kg ([…]). Type of assay: functional.
The species named for assay [5] is Rattus norvegicus. Nature of the assay: animal or person. The following applies: po, read-out: Inhibition.
Description: In vivo antiinflammatory potency in rat air pouch model expressed as inhibition of PGE-2 production following oral dosage of 5.4 mg/kg (15 mmol)
The species named for assay [6] is Rattus norvegicus. Briefly: animal or person. The conditions noted are these: po, read-out: Inhibition. This is another data set of the same source.
Description: In vivo antiinflammatory potency in rat air pouch model expressed as inhibition of white blood cell infiltration following oral dosage of 5.4 mg/kg (15 mmol)

For the molecule `CS(=O)(=O)c1ccc(-c2cc(C(F)(F)F)cnc2C(=O)c2ccccc2)cc1`, the inhibition in vivo at 6.1 mg/kg in the assay on Rattus norvegicus [1] came to 58.9%; in the assay on Rattus norvegicus [4], 46.2%. In addition, the IC50 (in general, the point on the concentration scale where inhibition reaches its midpoint) in assay [2] came out at 14 µM; in assay [3], 0.25 µM.
As to `Cc1ccc(-c2ncc(Cl)cc2-c2ccc(S(C)(=O)=O)cc2)cn1` [ETORICOXIB], in assay [2], the IC50 was greater than 200 µM. In addition, the inhibition in vivo at 5.4 mg/kg in the assay filed under Rattus norvegicus [5] turned out to be 61%; in the assay filed under Rattus norvegicus [6], 45%.
